Measurements reported in the supplement of paper PMC10307832.

How the values were obtained:
Experiment in all cases: relative viability (nuclei count vs DMSO), 5 days (fraction); higher = more cells survive
[1] = compound: C1=CC=C2C(=C1)N=C(S2)C(C#N)C3=NC(=NC=C3)NCCC4=CN=CC=C4 + COc1cc2c(Oc3ccc(NC(=O)C4(C(=O)Nc5ccc(F)cc5)CC4)cc3F)ccnc2cc1OCCCN1CCOCC1 [Foretinib] (partner 0.25 µM)
Outline: (§1)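 Lung cancer cell lines were seeded in 1536-well plates and dosed by pin tool the next day, with either a single drug or a fixed anchor-drug dose combined with five library-drug doses (not always all listed) spaced in √10 steps. Five days later, one step fixed the cells and stained their nuclei (final 0.05% Triton X-100, 1% formaldehyde, 1 ug/ml Hoechst), and nuclei were counted on 4× images. Relative viability is the nuclei count in treated wells divided by the count in vehicle wells, and each value is the median of duplicate plates.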

[2] = compound: COc1cc(N2CCC(N3CCN(C)CC3)CC2)ccc1Nc1ncc(Cl)c(Nc2ccccc2S(=O)(=O)C(C)C)n1 [NVP-TAE684] + CS(=O)(=O)CCNCc1ccc(-c2ccc3ncnc(Nc4ccc(OCc5cccc(F)c5)c(Cl)c4)c3c2)o1 [Lapatinib] (partner 2 µM)
Outline: as §1

[3] = compound: COc1cc(N2CCC(N3CCN(C)CC3)CC2)ccc1Nc1ncc(Cl)c(Nc2ccccc2S(=O)(=O)C(C)C)n1 [NVP-TAE684] + Cc1cc(Nc2cc(N3CCN(C)CC3)nc(Sc3ccc(NC(=O)C4CC4)cc3)n2)n[nH]1 [Tozasertib] (partner 0.1 µM)
Outline: as §1

[4] = compound: COc1cc(N2CCC(N3CCN(C)CC3)CC2)ccc1Nc1ncc(Cl)c(Nc2ccccc2S(=O)(=O)C(C)C)n1 [NVP-TAE684] + N=C(N)NC(=N)NCCc1ccccc1 [Phenformin] (partner 250 µM)
Outline: as §1

[5] = compound: COc1cc2/c(=N/c3ccc(Br)cc3F)nc[nH]c2cc1OCC1CCN(C)CC1 [Vandetanib] + CC(=O)c1c(C)c2cnc(Nc3ccc(N4CCNCC4)cn3)nc2n(C2CCCC2)c1=O [Palbociclib] (partner 0.5 µM)
Outline: as §1

Cell Line: UMC-11
- relative viability ([1]; first compound 0.005 µM): 0.908
- relative viability ([1]; first compound 0.01581 µM): 0.993
- relative viability ([1]; first compound 0.05 µM): 0.999
- relative viability ([1]; first compound 0.1581 µM): 1.01
- relative viability ([1]; first compound 0.5 µM): 1.05
- relative viability ([2]; first compound 0.2 µM): 1.03
- relative viability ([2]; first compound 0.6325 µM): 0.778
- relative viability ([2]; first compound 2 µM): 0.683
- relative viability ([3]; first compound 0.2 µM): 0.234
- relative viability ([3]; first compound 0.6325 µM): 0.199
- relative viability ([3]; first compound 2 µM): 0.197
- relative viability ([4]; first compound 0.2 µM): 0.355
- relative viability ([4]; first compound 0.6325 µM): 0.32
- relative viability ([4]; first compound 2 µM): 0.268
- relative viability ([5]; first compound 0.02 µM): 0.345
- relative viability ([5]; first compound 0.06325 µM): 0.336
- relative viability ([5]; first compound 0.2 µM): 0.321
- relative viability ([5]; first compound 0.6325 µM): 0.348
- relative viability ([5]; first compound 2 µM): 0.345
